Biological target: Mitogen-activated protein kinase 11 (Homo sapiens) (UniProt Q15759)
Test: PubChem AID 1671325
Conditions: Z'-LYTE FRET kinase activity, recombinant MAPK11

Chain of Mitogen-activated protein kinase 11 (Homo sapiens) (Q15759 whole entry, looked up): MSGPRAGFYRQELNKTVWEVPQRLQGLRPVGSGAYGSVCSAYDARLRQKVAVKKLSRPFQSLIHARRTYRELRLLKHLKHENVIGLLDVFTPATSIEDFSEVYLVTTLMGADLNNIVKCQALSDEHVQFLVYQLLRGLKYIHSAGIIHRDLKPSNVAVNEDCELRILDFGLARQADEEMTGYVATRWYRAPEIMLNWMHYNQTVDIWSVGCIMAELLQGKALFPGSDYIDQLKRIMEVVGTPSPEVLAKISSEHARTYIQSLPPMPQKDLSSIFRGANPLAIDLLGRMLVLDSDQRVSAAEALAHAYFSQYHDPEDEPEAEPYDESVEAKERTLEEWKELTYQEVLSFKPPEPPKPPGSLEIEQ

For `CC(C)(C)n1nc(-c2ccc(Cl)cc2)c2c(N)ncnc21`, the IC50 was 3.53 µM.

Source: PubChem BioAssay AID1671325
